{
  "source": "paper PMC1890308",
  "about": "“Anti-calmodulins and Tricyclic Adjuvants in Pain Therapy Block the TRPV1 Channel” (PLoS ONE, 2007)",
  "key": {"rat TRPV1": {"molecular_target": "T1, rat TRPV1 (Rattus norvegicus, UniProt O35433)", "T1 construct": "expressed in transfected cells", "T1 sequence (O35433 whole entry)": "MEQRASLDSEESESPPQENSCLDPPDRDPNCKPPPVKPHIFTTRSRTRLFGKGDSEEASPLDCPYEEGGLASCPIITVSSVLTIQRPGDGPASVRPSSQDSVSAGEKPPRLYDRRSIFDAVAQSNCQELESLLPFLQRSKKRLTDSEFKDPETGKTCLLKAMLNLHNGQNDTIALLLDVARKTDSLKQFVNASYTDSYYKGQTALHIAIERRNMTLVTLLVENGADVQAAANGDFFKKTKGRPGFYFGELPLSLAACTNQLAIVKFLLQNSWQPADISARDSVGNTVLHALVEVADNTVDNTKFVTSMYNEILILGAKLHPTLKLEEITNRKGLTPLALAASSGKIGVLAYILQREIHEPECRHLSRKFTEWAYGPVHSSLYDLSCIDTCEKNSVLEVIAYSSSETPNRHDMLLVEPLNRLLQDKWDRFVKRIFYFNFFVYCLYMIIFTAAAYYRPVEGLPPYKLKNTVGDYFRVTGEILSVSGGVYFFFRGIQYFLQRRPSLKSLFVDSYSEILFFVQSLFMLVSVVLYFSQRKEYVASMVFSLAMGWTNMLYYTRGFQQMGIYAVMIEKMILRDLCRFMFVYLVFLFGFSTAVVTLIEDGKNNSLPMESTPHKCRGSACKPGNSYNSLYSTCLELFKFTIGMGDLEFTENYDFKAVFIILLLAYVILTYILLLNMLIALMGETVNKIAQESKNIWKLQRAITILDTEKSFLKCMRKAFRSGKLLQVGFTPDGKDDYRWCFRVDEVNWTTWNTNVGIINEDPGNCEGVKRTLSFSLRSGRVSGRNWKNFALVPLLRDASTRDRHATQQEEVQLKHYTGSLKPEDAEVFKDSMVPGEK", "assay": "capsaicin-induced 45Ca2+-uptake in TRPV1-NIH3T3 cells", "format": "cell-based", "description": "Assays were carried out in 2×10^−5 M extracellular Ca^2+ in 96 well plate formats at room temperature (22°C) for 10 min with robotic liquid handling. […] We hypothesized that calmodulin antagonists and some registered drugs may exert their blocking effect with another mechanisms on TRPV1 and not necessarily on their conventional target.\nTRPV1-NIH3T3 mouse fibroblast line, ectopically expressing the rat TRPV1 was established previously.\nVanilloid agonist inducible calcium transport was assayed in adherent cell lines ectopically expressing the C-terminally ε-tagged rat TRPV1 (3×10^4 cells/well) and primary cultures prepared from embryonic DRG, seeded in poly-D lysine/collagen coated 96 well plates. […] The previously established cell lines and standardized DRG cultures were extensively characterized for functional cell-based TRPV1 studies [1]–[4]. Immediately before the transport assay, cells were adapted to room temperature (20°C) for 5 min in HCM. ^45Ca^2+-uptake was performed for 10 min at 20°C in HCM using 0.1 µCi ^45Ca^2+ as radioactive tracer in a 100 µl final volume. To stop ^45Ca^2+-uptake, cells were rapidly changed back into 0.2 ml HCM, washed 4 additional times with 0.2 ml HCM, and then lysed in 80 µl/well RIPA buffer (50 mM Tris-HCl, pH 7.5, 150 mM NaCl, 1% Triton X-100, 0.5% deoxycholate, 0.1% SDS, 5 mM EDTA) for 30 min [1]–[4]. Aliquots of the solubilized cell extracts were mixed with 120 µl Microscint-40 and counted in a 96 well plate liquid scintillation counter (TopCount-NXT, Packard)."}, "NMDA receptors": {"test_system": "NMDA receptors", "assay": "NMDA-evoked responses of spinal dorsal horn neurons, microiontophoresis", "format": "in vivo", "conditions": "anesthetized rat, iontophoresis, mean±SD, n = 16", "description": "In another set of experiments, effects of calmidazolium were investigated on the responses of dorsal horn neurons evoked by NMDA and kainic acid agonists of different glutamate receptors, well characterized transducers of pain signals, more centrally. Neuronal firing responses to iontophoresed NMDA or kainic acid were typically fast in onset and short in duration (Fig. 8). Ejection currents for these excitatory agents were delivered alternately in every 2 min and were selected to produce a maximal peak height of 50–70 spikes/s which corresponded to 300–400 action potentials per stimulation epoch. Iontophoretic application of calmidazolium produced significant reduction in responses to both NMDA and kainic acid. Maximal inhibition of NMDA- or kainic acid -evoked responses were reached 15–20 min after calmidazolium application and remained so during the rest of the 2 hour long experiment. […]\nExtracellular single-neuron recordings were made in chloral hydrate-anesthetized ([…] initial dose, i.p., with supplemental doses as required) male Wistar rats weighing between 350–450 g. […] Rectal temperature as well as the temperature of the mineral oil were monitored with temperature probes and kept at 37°C by a warm water-heated blanket beneath the rat and an infrared heat lamp from above. […]"}, "[1]": {"test_system": "intermediate Ca2+-activated K+ channels (IKCa)", "conditions": "human erythrocytes; cited from earlier work"}, "[2]": {"conditions": "increasing concentrations of capsaicin"}},
  "note": "Values joined by “and” are separate entries in the source; they are usually repeats but may differ in a detail not shown here. Equal entries are not always repeated.",
  "data": [
    {"compound": "Clc1ccc(C(c2ccc(Cl)cc2)n2cc[n+](CC(OCc3ccc(Cl)cc3Cl)c3ccc(Cl)cc3Cl)c2)cc1", "note": "(stereo not drawn) [calmidazolium]", "values": [
      {"measurement": "antagonist activity on capsaicin-induced Ca2+-uptake (in words)", "setting": "rat TRPV1; 2 µM capsaicin", "result": "full antagonists"},
      {"measurement": "IC50", "setting": "rat TRPV1; 2 µM capsaicin, 10 min, 2×10^−5 M extracellular Ca2+, room temperature, read-out: IC50, inhibition of capsaicin-induced 45Ca2+-uptake", "result": "7 µM and ~2 µM"},
      {"measurement": "concentration above which Ca2+-transport was almost completely abolished", "setting": "rat TRPV1; [2]", "result": "> 2.5", "unit": "µM"},
      {"measurement": "kinetics of Ca2+-transport inhibition", "setting": "rat TRPV1; [2]", "result": "decreased Vmax"},
      {"measurement": "responses to NMDA, % of pre-calmidazolium baseline control", "setting": "NMDA receptors", "result": "13±12", "unit": "%"},
      {"measurement": "activity on IKCa channels (in words)", "setting": "[1]", "result": "inactive"}
    ]}
  ]
}
